Measurements taken from US12623988B2, “Scaleable preparation of polyketides” (The Regents of the University of California, priority 2019, dated 2026).
“Also recorded” adds a separate entry of the source. Read-outs that look alike come from different tables or passages of the source.

What was measured:
[1] = rcm bond, Hoveyda-Grubbs 2nd generation catalyst, toluene, 110.0 °C, 5.33 h
HCT-116 cells = test: Cell viability assay for 1 and 1a-1c in HCT-116 cells (CellTiter Aqueous One, GI50); format: cell-based, human; conditions: 0 to 1000 nM, 72 h, result in words, compared to 1
Experimental: Cell culture. The HCT-116 cell line was cultured in McCoy's 5a (Life Technologies) supplemented with 10% fetal bovine serum (FBS), 2 mM L-glutamine, and 100 U mL^−1 of penicillin and 100 μg mL^−1 of streptomycin at 37° C. in an atmosphere of 5% CO2. Both the HeLa and Caov3 cell lines were maintained in DMEM (Life Technologies) supplemented with 10% FBS, 2 mM L-glutamine, and 100 U mL^−1 of penicillin and 100 μg mL^−1 of streptomycin at 37° C. in an atmosphere of 5% CO2.
Cell Viability Assays for 1a-1c. HCT-116 cells were cultured in McCoy's 5a (Life Technologies) supplemented with 10% fetal bovine serum (FBS), 2 mM L-glutamine, 100 U mL^−1 penicillin and 100 μg mL^−1 streptomycin at 37° C. in an atmosphere of 5% CO2. HCT-116 cells were plated at […] cells/well in McCoy's 5a containing 10% FBS. Cells were cultured for 24 h, pretreated with 1 or 1a-1c in DMSO ranging from 0 to 1000 nM for 72 h (cell media contained <0.5% DMSO), and then washed with PBS (2×100 μL). 100 μL of PBS was added to each well, followed by 20 μL of CellTiter Aqueous One Solution (Promega). After 2 h at 37° C., absorbance readings were taken at 490 nm (test wavelength) and 690 nm (reference wavelength). GI50 values were calculated in Prism (GraphPad) using at least three biological replicates.

[2] = estimated, reference (6); cited from earlier work
[3] = Storage stability of synthetic fragments and intermediates; conditions: for stability at ambient conditions: storage

COc1ccc(C2O[C@H]3/C=C/[C@H](C)[C@@H](/C(C)=C/I)OC(=O)C[C@H](O[Si](C)(C)C(C)(C)C)CC[C@@]3(C)O2)cc1 (stereo partly drawn)
ring closure, yield of all isomers ([1]; from C=C[C@@H]1OC(c2ccc(OC)cc2)O[C@]1(C)CC[C@H](CC(=O)O[C@H](/C(C)=C/I)[C@@H](C)C=C)O[Si](C)(C)C(C)(C)C, 5.37 mM): 50% | ring closure, yield of all isomers ([1]; from C=C[C@@H]1OC(c2ccc(OC)cc2)O[C@]1(C)CC[C@H](CC(=O)O[C@H](/C(C)=C/I)[C@@H](C)C=C)O[Si](C)(C)C(C)(C)C): 51%

COc1ccc(C2O[C@H]3C=C[C@H](C)[C@@H](/C(C)=C/I)O[13C](=O)C[C@H](O[Si](C)(C)C(C)(C)C)CC[C@@]3(C)O2)cc1 (stereo partly drawn)
ring closure, yield of all isomers ([1]; from C=C[C@@H]1OC(c2ccc(OC)cc2)O[C@]1(C)CC[C@H](C[13C](=O)O[C@H](/C(C)=C/I)[C@@H](C)C=C)O[Si](C)(C)C(C)(C)C, 6.52 mM): 50%

CC[C@H](OC)[C@@H](C)[C@H]1O[C@@H]1[C@@H](O)[C@H](C)/C=C/C=C(\C)[C@H]1OC(=O)C[C@@H](O)CC[C@@](C)(O)[C@@H](OC(C)=O)/C=C/[C@@H]1C [1a, 3S,17S-FD-895]
activity (GI50 screening) in human colorectal tumor HCT-116 cells (HCT-116 cells): compromised activity

CC[C@H](OC)[C@@H](C)[C@H]1O[C@@H]1[C@@H](O)[C@H](C)/C=C/C=C(\C)[C@H]1OC(=O)C[C@H](O)CC[C@@](C)(O)[C@H](OC(C)=O)/C=C/[C@@H]1C [1b, 7R,17S-FD-895]
activity (GI50 screening) in human colorectal tumor HCT-116 cells (HCT-116 cells): compromised activity; also recorded: lack in activity

CC[C@H](OC)[C@@H](C)[C@H]1O[C@@H]1[C@@H](O)[C@H](C)/C=C/C=C(\C)[C@H]1OC(=O)C[C@H](O)CC[C@@](C)(O)[C@@H](OC(C)=O)/C=C/[C@@H]1C [compound 1, 17S-FD-895]
human maximum tolerated dose (MTD) [2]: ~4 mg/m^2

CC(=O)O[C@H]1/C=C/[C@H](C)[C@@H](/C(C)=C/I)OC(=O)C[C@H](O)CC[C@@]1(C)O [compound 2, (2S,3S,6S,7R,10R,E)-7,10-dihydroxy-2-((E)-1-iodoprop-1-en-2-yl)-3,7-dimethyl-12-oxooxacyclododec-4-en-6-yl acetate]
stability at ambient conditions [3]: stable over six months at ambient conditions

CC[C@H](OC)[C@@H](C)/C=C/CO [compound 13, (4S,5S,E)-5-Methoxy-4-methylhept-2-en-1-ol]
storage stability at 4° C. ([3]; stored at 4° C.): over 2 years

C#C[C@@H](C)[C@H](O)[C@H]1O[C@@H]1[C@H](C)[C@H](CC)OC [compound 15, (1S,2R)-1-((2R,3R)-3-((2R,3S)-3-methoxypentan-2-yl)oxiran-2-yl)-2-methylbut-3-yn-1-ol]
stability at ambient conditions [3]: stable over six months at ambient conditions
